Results as given in patent EP3749673B1, “CRYSTALLINE FORM OF BICTEGRAVIR SODIUM” (Sandoz AG, priority 2018, dated 2019).

Experiments:
Assay type in all cases: physicochemical
[1] = Differential scanning calorimetry, resistance to temperature stress (solid-solid phase transition); conditions: DSC, heating rate 10 K/min, 25 to 400 °C
Procedure: Bictegravir sodium Form II was investigated by DSC, which was performed on a Mettler Polymer DSC R instrument. The sample (3.77 mg) was heated in a 40 microliter aluminium pan with a pierced aluminium lid from 25 to 400 °C at a rate of 10 K/min. Nitrogen (purge rate 50 mL/min) was used as purge gas.

[2] = Storage stability (polymorphic stability determined by XRPD); conditions: stored at 40°C/75% rh
Procedure: Thus bictegravir sodium form II is a storage stable (polymorphically stable as determined by XRPD for at least 1 month when stored at 40°C/75% rh) fast-dissolving crystalline form of bictegravir sodium with unexpected advantages over bictegravir sodium form I.

[3] = Initial dissolution behaviour (dissolution rate), about 100 mg suspended in 10 ml solvent, filtrate analysed by HPLC; conditions: 24°C, stirring time 1 minute, approx. 100mg in 10ml
Procedure: The initial dissolution behavior of bictegravir sodium form II was compared with bictegravir sodium form I. Approximately 100mg Bictegravir-Na (Form I or Form II) were suspended at 24°C in 10ml solvent. Two different solvents were used for the study: 0,1M aqueous HCl solution and a phosphate buffer system (pH6,8; prepared according to "Küster Thiel - Rechentafeln dür die chemische Analytik").
After a stirring time of 1 minute a sample was taken and filtered throw a syringe filter. The received clear filtrate was analyzed by HPLC to determine the Bictegravir content. The HPLC-column was a YMC-Pack Pro C18 RS (150mm x 4.6mm) operated at 0.8 ml/min. Detection was at a wavelength of 254 nm. Mobile phases were sulfamic acid in water and acetonitrile, respectively, and were used as components of the gradient.

Row | SMILES | onset temperature of exothermic peak (solid-solid phase transition from Form II to Form I) [1] | peak temperature of exothermic peak (solid-solid phase transition from Form II to Form I) [1] | polymorphically stable as determined by XRPD (storage time) [2] | amount dissolved after 1 minute ([3]; 0.1M HCl) [mg/mL] | amount dissolved after 1 minute ([3]; pH6.8 phosphate buffer system) [mg/mL] | temperature at which decomposition starts ([1]; Form I formed in situ from Form II)
1 | O=C(NCc1c(F)cc(F)cc1F)c1cn2c(c(O)c1=O)C(=O)N1C3CCC(C3)OC1C2 (centres unmarked) [bictegravir sodium form II, bictegravir sodium] | about 313 °C | about 320 °C | at least 1 month | 0.220 | 0.186 | –
2 | O=C(NCc1c(F)cc(F)cc1F)c1cn2c(c(O)c1=O)C(=O)N1C3CCC(C3)OC1C2 (centres unmarked) [bictegravir sodium form I, bictegravir sodium] | – | – | – | 0.085 | 0.059 | about 370 °C
